1 compound from ChEMBL document CHEMBL4261555, “Identification of a potent kinase inhibitor targeting EML4-ALK fusion protein in non-small cell lung cancer” (Medchemcomm, 2017) can be followed below.

The source made the active and inactive calls. The rule behind the calls is not given here.

The subject of assay [1] is NCI-H2228. Nature of the assay: cells. As to conditions: Homo sapiens, NCI-H2228, 72 h.
Description: (§1) Cytotoxicity against human NCI-H2228 cells harboring EML4-ALK fusion protein assessed as decrease in cell viability after 72 hrs by MTT assay
Assay [2] has as its system NCI-H2228. Nature of the assay: Induction of apoptosis in human NCI-H2228 cells at 10 uM after 48 hrs by annexin V-FITC/propidium iodide staining-based flow cytometric method (reference value: 4.5%). The assay is classed as functional. Background: A flow cytometer gives signals particle by particle.
Assay [3] deals with NCI-H2228. Briefly: Anticlonogenic activity against human NCI-H2228 cells treated every 3 days for 10 days by crystal violet staining based assay. The class given is functional, cell-based.
Assay [4] deals with T1, ALK tyrosine kinase receptor (Homo sapiens, UniProt Q9UM73). Nature of the assay: Inhibition of EML4-fused ALK in human NCI-H2228 cells assessed as suppression of ERK1/2 phosphorylation after 48 hrs by Western blot method. The assay is classed as cell-based.
Target sequence in this assay (Q9UM73 19-1620 limits assumed): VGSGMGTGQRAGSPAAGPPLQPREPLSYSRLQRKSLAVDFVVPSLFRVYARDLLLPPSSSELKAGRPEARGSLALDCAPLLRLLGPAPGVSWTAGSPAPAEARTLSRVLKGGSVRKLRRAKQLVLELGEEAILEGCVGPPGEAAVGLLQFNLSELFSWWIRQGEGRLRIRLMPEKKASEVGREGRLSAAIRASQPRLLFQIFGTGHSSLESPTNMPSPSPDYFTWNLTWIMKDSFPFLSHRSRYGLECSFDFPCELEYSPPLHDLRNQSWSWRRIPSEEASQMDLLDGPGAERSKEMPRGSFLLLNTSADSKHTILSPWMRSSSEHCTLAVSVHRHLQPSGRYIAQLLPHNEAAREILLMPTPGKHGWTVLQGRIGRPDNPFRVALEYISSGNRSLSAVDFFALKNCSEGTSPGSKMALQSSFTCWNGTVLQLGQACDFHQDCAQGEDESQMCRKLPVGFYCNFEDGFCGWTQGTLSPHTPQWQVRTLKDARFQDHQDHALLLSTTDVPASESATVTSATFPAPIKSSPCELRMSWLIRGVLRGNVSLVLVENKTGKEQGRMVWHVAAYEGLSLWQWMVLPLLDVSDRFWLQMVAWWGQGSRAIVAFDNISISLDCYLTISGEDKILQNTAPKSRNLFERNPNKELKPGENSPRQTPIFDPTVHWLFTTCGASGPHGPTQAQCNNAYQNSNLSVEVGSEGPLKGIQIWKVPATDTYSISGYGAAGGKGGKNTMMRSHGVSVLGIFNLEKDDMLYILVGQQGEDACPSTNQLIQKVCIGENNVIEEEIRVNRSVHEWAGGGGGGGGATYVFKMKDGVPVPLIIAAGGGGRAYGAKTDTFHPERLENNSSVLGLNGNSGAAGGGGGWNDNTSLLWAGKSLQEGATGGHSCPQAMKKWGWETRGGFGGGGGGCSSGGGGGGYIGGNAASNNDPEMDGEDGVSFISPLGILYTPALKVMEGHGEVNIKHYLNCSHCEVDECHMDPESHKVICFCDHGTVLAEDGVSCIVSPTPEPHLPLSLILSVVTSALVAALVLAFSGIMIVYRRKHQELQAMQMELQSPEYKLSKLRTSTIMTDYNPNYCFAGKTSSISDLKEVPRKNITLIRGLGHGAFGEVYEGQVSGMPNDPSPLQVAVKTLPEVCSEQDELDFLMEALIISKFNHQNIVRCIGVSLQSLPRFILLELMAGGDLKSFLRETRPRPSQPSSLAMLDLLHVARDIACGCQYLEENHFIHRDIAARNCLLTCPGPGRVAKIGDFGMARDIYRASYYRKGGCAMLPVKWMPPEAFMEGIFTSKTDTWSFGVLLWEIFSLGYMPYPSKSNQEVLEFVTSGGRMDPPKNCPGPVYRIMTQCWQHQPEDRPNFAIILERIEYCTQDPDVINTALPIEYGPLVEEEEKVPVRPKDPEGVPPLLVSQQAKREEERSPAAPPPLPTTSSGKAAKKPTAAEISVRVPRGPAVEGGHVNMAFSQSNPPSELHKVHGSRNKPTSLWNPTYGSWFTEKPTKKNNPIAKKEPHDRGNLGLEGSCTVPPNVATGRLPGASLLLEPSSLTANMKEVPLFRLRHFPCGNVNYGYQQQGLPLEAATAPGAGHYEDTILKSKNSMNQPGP
For assay [5], the system named is NCI-H2228. The settings on record: Homo sapiens.
Description: as §1
Assay [6] has as its target T1, ALK tyrosine kinase receptor. Briefly: Inhibition of EML4-fused ALK in human NCI-H2228 cells assessed as suppression of STAT3 phosphorylation after 48 hrs by Western blot method. The class given is cell-based. On the technique in general: In western blotting, separated proteins are transferred to a membrane and probed.
Target sequence in this assay (Q9UM73 19-1620 limits assumed): as above
Assay [7] has the same target. Briefly: Inhibition of EML4-fused ALK autophosphorylation at Tyr1282/1283 in human NCI-H2228 cells at 2.5 to 10 uM after 48 hrs by Western blot method. The class given is cell-based.
Target sequence in this assay (Q9UM73 19-1620 limits assumed): as above
The test system of assay [8] is NCI-H2228. Briefly: Induction of apoptosis in human NCI-H2228 cells after 48 hrs by annexin V-FITC/propidium iodide staining-based flow cytometric method. The assay is classed as functional, cell-based.
Assay [9] addresses T1, ALK tyrosine kinase receptor.
Target sequence in this assay (Q9UM73 whole entry, the tested form may be a part): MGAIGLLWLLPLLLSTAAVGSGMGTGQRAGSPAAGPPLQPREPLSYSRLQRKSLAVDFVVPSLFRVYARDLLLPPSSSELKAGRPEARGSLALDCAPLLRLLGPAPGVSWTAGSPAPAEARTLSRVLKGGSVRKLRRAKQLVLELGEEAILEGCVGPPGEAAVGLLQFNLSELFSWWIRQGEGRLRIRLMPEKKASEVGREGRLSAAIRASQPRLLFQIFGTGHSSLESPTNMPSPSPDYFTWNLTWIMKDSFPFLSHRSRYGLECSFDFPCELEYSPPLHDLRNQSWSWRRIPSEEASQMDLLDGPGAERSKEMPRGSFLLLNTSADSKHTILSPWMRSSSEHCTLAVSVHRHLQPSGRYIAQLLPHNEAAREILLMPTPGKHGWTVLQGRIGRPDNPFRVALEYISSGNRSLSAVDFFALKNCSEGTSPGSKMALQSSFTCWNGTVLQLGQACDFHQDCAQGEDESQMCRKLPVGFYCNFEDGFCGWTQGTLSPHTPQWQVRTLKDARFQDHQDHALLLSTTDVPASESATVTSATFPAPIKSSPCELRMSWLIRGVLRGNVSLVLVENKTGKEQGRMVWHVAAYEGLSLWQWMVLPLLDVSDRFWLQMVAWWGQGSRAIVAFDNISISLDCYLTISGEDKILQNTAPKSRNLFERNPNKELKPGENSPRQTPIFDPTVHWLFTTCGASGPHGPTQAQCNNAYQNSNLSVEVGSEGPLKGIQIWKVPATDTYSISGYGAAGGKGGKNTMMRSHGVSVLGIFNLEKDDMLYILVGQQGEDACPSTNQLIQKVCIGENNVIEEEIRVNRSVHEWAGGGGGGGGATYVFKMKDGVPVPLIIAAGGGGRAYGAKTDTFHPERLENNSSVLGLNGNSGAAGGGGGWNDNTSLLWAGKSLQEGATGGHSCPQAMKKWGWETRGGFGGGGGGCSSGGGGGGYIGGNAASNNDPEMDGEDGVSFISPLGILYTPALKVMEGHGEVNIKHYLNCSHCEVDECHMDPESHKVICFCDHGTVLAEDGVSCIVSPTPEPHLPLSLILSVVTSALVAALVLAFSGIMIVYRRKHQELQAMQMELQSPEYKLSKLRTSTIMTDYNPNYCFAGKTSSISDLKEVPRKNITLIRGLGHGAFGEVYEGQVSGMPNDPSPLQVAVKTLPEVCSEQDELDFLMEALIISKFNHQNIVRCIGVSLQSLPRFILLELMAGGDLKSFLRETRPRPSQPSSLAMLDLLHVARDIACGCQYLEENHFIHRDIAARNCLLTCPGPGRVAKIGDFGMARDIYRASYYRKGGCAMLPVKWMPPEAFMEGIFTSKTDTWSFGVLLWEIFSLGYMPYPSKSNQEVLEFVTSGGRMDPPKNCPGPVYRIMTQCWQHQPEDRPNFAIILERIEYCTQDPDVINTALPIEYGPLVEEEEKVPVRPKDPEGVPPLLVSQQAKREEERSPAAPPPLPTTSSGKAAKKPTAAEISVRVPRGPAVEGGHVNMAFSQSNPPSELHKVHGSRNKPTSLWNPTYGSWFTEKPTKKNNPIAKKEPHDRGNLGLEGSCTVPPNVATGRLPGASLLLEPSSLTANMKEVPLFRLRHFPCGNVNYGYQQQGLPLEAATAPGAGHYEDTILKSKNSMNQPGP
Description: Inhibition of recombinant ALK (unknown origin) after 1 hr by fluorescence assay
Assay [10] shares this target. Nature of the assay: Inhibition of EML4-fused ALK in human NCI-H2228 cells assessed as suppression of AKT phosphorylation after 48 hrs by Western blot method. The class given is cell-based.
Target sequence in this assay (Q9UM73 19-1620 limits assumed): as the sequence (Q9UM73 19-1620 limits assumed) above
Assay [11] has as its system NCI-H2228. Briefly: Induction of apoptosis in human NCI-H2228 cells at 5 uM after 48 hrs by annexin V-FITC/propidium iodide staining-based flow cytometric method (reference value: 4.5%). The assay is classed as functional.

`CC1=C(C)C2C(=O)N3N=C(NCCCN(C)C)c4ccccc4C3=NC2S1` (stereo unspecified): half-maximal inhibition in assay [1] (IC50) required 4.11 µM. Further, the Activity in assay [2] was 37.5%; in assay [5] it was “Dose-dependent effect”; in assay [8] it was “Dose-dependent effect”; in assay [11], 23.5%. The result in assay [3] was Active. Further, the inhibition result in assay [4], in assay [6] and in assay [10] was “Dose-dependent effect” throughout. In addition, the inhibition result in assay [7] is “Active”. Moreover, the midpoint of the response in assay [9], the EC50, lay at 19.6 µM.
